Test results taken from patent EP0053325A1, “Antimicrobic triazole derivatives” (BAYER AG, priority 1980, dated 1982).

Assays:
[1] = system: Dermatophyten und Schimmelpilze; Hefen; experiment: Antimycotic in-vitro activity, serial dilution test; assay type: cell-based; conditions: Reihenverdünnungstest, 5 x 10^4 Keimen/ml Substrat, 20°C, 24 bis 96 Stunden; compared with prior-art compounds (A) and (B)
Protocol: Die in-vitro-Prüfungen wurden im Reihenverdünnungstest mit Keiminokula von durchschnittlich 5 x 10^4 Keimen/ml Substrat durchgeführt. Als Nährmedium dienten • a) für Dermatophyten und Schimmelpilze: Sabourand's milieu d'épreuve • b) für Hefen: Fleischextrakt-Traubenzucker-Bouillon.
Die Bebrütungstemperatur betrug 20°C, die Bebrütungsdauer lag bei 24 bis 96 Stunden.

Candida = experiment: Antimycotic in-vivo activity (oral) in mouse candidosis; conditions: Mäuse SPF-CF1 infected i.v. with 1 - 2 x 10^6 Candida-Zellen, 50 - 100mg/ kg one hour before and seven hours after infection, survival, compared with (A) and (B)
Protocol: Mäuse vom Typ SPF-CF1 wurden intravenös mit 1 - 2 x 10^6 logarithmisch wachsenden Candida-Zellen, die in physiologischer Kochsalzlösung suspendiert werden, infiziert. Eine Stunde vor und sieben Stunden nach der Infektion werden die Tiere mit jeweils 50 - 100mg/ kg Körpergewicht der Präparate oral behandelt.
Unbehandelte Tiere starben 3 bis 6 Tage post infektionen. Die Ueberlebensrate am 6.Tag post infektionem betrug bei unbehandelten Kontrolltieren etwa 5 %. In diesem Test zeigen z.B. die erfindungsgemäßen Verbindungen 3, 9.

Row | SMILES | antimykotische Wirkung [1] | Wirkung (Candida)
1 | CC(C)(C)C(O)/C(=C\c1ccccc1C(F)(F)F)n1cncn1 (stereo not drawn) [Beispiel 2, 4.4-Dimethyl-2-(1,2,4-triazol-1-yl)-1-(2-trifluormethylphenyl)-1-penten-3-ol] | bessere antimykotische Wirkung als die aus dem Stand der Technik bekannten Verbindungen (A) und (B) | 
2 | CC(C)(C)C(O)C(=Cc1ccc(C(F)(F)F)cc1)n1cncn1 (stereo not drawn) [Beispiel 3, 4,4-Dimethyl-2-(1,2,4-triazol-1-yl)-1-(4-trifluormethylphenyl)-1-penten-3-ol] | bessere antimykotische Wirkung als die aus dem Stand der Technik bekannten Verbindungen (A) und (B) | bessere Wirkung als die aus dem Stand der Technik bekannten Verbindungen (A) und (B)
3 | CC(C)(C)C(O)/C(=C/c1ccc([N+](=O)[O-])cc1)n1cncn1 (stereo not drawn) [Beispiel 9] |  | bessere Wirkung als die aus dem Stand der Technik bekannten Verbindungen (A) und (B)
4 | CC(C)(C)C(O)/C(=C\c1ccc([N+](=O)[O-])cc1)n1cncn1 (stereo not drawn) [Beispiel 10] | bessere antimykotische Wirkung als die aus dem Stand der Technik bekannten Verbindungen (A) und (B) | bessere Wirkung als die aus dem Stand der Technik bekannten Verbindungen (A) und (B)
5 | CC(C)(C)C(O)/C(=C\c1ccc(C(F)(F)F)cc1Cl)n1cncn1 (stereo not drawn) [Beispiel 12] | bessere antimykotische Wirkung als die aus dem Stand der Technik bekannten Verbindungen (A) und (B) | bessere Wirkung als die aus dem Stand der Technik bekannten Verbindungen (A) und (B)
6 | CC(C)(C)C(O)/C(=C\c1ccc(OC(F)(F)F)cc1)n1cncn1 (stereo not drawn) [Beispiel 14] | bessere antimykotische Wirkung als die aus dem Stand der Technik bekannten Verbindungen (A) und (B) | bessere Wirkung als die aus dem Stand der Technik bekannten Verbindungen (A) und (B)
7 | CC(C)(C)C(O)/C(=C\c1ccc(SC(F)(F)F)cc1)n1cncn1 (stereo not drawn) [Beispiel 16] | bessere antimykotische Wirkung als die aus dem Stand der Technik bekannten Verbindungen (A) und (B) | 
8 | CC(C)(C)C(O)/C(=C\c1ccc(C(F)(F)F)cc1)n1cncn1 (stereo not drawn) [Beispiel 18] | bessere antimykotische Wirkung als die aus dem Stand der Technik bekannten Verbindungen (A) und (B) | bessere Wirkung als die aus dem Stand der Technik bekannten Verbindungen (A) und (B)
9 | CC(C)(C)C(O)/C(=C\c1ccc(C(F)(F)F)c(Cl)c1)n1cncn1 (stereo not drawn) [Beispiel 20] | bessere antimykotische Wirkung als die aus dem Stand der Technik bekannten Verbindungen (A) und (B) | 
10 | CC(C)(C)C(O)/C(=C\c1ccc(OC(F)(F)F)c(Cl)c1)n1cncn1 (stereo not drawn) [Beispiel 22] | bessere antimykotische Wirkung als die aus dem Stand der Technik bekannten Verbindungen (A) und (B) | 
